Assay results from ChEMBL document CHEMBL1201862, “PubChem BioAssay data set” (2004).
The source made the active and inactive calls. For most assays here, no stated cut-off is given here; in the data, actives have a measured EC50 and inactives only a lower limit.

Tests used:
[1] = target: T1, Zinc finger protein mex-5 (Caenorhabditis elegans, UniProt Q9XUB2); assay: potency of MEX-5 RNA-binding blockers – biochemical, C. elegans, fluorescence polarization, dose response (AID 1960)
T1 sequence (Q9XUB2 whole entry): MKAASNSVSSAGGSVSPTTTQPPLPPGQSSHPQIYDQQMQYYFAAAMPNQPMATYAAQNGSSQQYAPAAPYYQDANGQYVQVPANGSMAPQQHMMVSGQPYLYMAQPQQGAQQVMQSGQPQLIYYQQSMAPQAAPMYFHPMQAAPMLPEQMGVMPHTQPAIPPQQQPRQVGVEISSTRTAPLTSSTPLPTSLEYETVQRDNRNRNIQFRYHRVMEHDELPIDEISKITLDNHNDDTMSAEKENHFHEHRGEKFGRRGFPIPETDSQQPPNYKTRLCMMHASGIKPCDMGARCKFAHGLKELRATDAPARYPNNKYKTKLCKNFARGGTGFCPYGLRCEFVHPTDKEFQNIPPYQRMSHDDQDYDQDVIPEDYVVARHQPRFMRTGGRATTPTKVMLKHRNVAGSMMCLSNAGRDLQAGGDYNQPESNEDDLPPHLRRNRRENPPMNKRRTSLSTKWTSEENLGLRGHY

[2] = target: T2, RNA-binding protein pos-1 (Caenorhabditis elegans, UniProt G5EF15); assay: disruptors of C. elegans POS-1 RNA interaction – biochemical, fluorescence polarization, dose response (AID 1964);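 further: purified POS-1 fused to maltose binding protein made in E. coli; potency of compounds blocking POS-1 binding to fluorescent RNA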
T2 sequence (G5EF15 whole entry): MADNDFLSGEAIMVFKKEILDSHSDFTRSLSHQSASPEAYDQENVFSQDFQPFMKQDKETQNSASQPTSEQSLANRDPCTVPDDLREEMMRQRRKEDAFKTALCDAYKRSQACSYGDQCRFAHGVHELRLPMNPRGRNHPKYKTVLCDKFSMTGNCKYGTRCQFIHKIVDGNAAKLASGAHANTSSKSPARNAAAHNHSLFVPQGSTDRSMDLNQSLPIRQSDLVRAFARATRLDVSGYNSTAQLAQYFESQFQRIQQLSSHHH

[3] = target: T3, Ubiquitin-conjugating enzyme E2 N (Homo sapiens, UniProt P61088); type: functional;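 further: Dose-response confirmation in a TR-FRET assay detecting UBC13-driven polyubiquitin chain formation, inhibition measured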
T3 sequence (P61088 whole entry): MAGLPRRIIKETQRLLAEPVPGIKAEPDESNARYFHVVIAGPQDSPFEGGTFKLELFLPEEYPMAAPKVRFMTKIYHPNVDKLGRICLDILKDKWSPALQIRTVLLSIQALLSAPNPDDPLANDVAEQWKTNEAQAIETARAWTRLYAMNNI

[4] = system: Streptococcus; assay: GAS UMAA2166 growth inhibition – luminescence, BacTiterGlo, counter-screen for streptokinase expression inhibitor project, dose response (AID 1915); type: functional, organism-based;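 further: potency for reduction of bacterial viability or growth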
[5] = system: Streptococcus sp. 'group A'; assay: Streptococcus pyogenes SK(-)GAS viability under kanamycin – luminescence, BacTiterGlo, confirmation, counter-screen for streptokinase expression inhibitor project, dose response (AID 1900); type: functional, organism-based
[6] = system: H9c2; assay: cells; type: functional, cell-based; conditions: Rattus norvegicus, H9c2, Myocardium;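 further: confirmatory concentration-response retest of ultra-high-throughput screening hits for modulation of myocardial damage; cell death induced by hydrogen peroxide oxidative stress; compound pretreatment for 60 min then peroxide exposure for 2 h; potency is for protecting the cells against peroxide damage rather than for killing them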
[7] = target: T4, Streptokinase A (Streptococcus pyogenes serotype M1, UniProt P10520); assay: viability-normalized secreted streptokinase activity reduction – plasminogen activation absorbance, OD405, dose response (AID 1914); type: functional, Streptococcus pyogenes M1 GAS;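 further: secreted streptokinase activity via plasminogen activation per viability signal from cell pellet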
T4 sequence (P10520 whole entry): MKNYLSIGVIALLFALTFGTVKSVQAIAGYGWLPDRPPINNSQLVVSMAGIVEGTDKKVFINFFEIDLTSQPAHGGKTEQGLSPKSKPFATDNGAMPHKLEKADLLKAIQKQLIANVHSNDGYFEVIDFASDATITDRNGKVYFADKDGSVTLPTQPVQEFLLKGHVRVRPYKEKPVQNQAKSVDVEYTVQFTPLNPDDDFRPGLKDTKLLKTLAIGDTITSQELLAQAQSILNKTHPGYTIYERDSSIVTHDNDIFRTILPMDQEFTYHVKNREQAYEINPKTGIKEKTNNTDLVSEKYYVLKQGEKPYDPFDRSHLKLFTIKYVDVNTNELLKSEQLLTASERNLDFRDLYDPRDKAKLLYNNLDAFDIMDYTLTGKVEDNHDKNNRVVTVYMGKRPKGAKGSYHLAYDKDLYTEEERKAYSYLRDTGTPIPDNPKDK

[8] = microbe, parasite or virus in culture; type: functional; conditions: Mycobacterium tuberculosis
[9] = target: T5, Estrogen receptor (Homo sapiens, UniProt P03372);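 further: potency for inhibiting coactivator peptide recruitment to the receptor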
T5 sequence (P03372 whole entry): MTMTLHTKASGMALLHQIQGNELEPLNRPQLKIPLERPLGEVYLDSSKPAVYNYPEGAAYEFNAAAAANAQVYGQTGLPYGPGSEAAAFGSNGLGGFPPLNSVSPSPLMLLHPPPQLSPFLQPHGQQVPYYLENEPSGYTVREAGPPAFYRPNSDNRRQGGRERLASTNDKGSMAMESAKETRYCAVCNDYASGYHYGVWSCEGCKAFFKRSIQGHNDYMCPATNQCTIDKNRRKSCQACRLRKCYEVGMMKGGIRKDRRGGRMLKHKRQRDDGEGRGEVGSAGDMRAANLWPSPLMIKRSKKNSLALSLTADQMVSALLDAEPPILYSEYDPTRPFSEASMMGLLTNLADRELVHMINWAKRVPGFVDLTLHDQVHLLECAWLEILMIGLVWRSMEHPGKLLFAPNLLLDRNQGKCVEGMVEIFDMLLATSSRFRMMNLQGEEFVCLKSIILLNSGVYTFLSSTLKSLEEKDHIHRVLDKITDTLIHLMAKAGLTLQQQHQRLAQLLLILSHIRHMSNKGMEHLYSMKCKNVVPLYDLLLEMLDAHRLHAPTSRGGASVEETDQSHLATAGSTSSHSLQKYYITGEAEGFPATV

[10] = target: T6, Heat shock factor protein 1 (Mus musculus, UniProt P38532); assay: decrease of HSF1-responsive luciferase luminescence – cell-based, NIH3T3, dose retest, confirmation (AID 2382); type: functional;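 further: NIH3T3 fibroblasts with HSF1-driven luciferase reporter stressed by proteasome inhibitor MG132; luminescence from HSF1-driven luciferase expression after 8 hours of MG132 stress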
T6 sequence (P38532 whole entry): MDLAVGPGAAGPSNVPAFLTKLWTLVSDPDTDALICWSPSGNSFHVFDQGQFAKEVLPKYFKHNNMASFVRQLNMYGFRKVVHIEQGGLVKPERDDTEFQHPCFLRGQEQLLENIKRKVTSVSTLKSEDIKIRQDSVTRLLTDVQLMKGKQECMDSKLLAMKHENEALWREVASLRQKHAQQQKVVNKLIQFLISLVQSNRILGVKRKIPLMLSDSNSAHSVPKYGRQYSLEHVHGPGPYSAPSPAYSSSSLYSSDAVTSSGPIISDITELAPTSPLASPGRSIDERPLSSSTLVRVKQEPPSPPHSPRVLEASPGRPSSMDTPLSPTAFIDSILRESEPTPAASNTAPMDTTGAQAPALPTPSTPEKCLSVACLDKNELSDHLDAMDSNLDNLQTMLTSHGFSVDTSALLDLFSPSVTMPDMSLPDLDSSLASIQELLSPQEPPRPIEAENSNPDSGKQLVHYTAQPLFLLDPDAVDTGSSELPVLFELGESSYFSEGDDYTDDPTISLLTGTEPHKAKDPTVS

[11] = target: Cytochrome P450 2D6 (Homo sapiens, UniProt P10635);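 further: CYP2D6 member of a cytochrome P450 panel assay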
[12] = target: Cytochrome P450 2C9 (Homo sapiens, UniProt P11712)
[13] = NIH-3T3 fibroblast cytotoxicity, dose response, cytotoxicity control, cell-based, fluorescence, Alamar Blue, secondary assay (AID 2327); type: functional;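 further: NIH-3T3 mouse fibroblasts cultured with fluconazole at 8 µg/mL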
[14] = fluconazole-exposed Candida albicans growth modulators – fluorescence, retest, confirmation (AID 2467); type: functional, cell-based

Sequence of Cytochrome P450 2D6 (P10635 whole entry): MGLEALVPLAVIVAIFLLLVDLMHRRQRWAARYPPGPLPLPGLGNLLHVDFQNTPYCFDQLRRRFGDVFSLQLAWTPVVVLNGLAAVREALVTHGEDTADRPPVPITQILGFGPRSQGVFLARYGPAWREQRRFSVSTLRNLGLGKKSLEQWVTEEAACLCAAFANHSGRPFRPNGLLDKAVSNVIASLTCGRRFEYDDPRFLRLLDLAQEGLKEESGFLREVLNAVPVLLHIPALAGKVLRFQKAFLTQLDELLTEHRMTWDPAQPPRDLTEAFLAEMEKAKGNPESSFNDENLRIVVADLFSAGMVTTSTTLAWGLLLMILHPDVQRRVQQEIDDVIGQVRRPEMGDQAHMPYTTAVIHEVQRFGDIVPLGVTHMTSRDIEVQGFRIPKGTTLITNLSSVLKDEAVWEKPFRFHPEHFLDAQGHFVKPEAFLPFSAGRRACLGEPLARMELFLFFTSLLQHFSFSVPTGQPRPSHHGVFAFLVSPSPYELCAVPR
Sequence of Cytochrome P450 2C9 (P11712 whole entry): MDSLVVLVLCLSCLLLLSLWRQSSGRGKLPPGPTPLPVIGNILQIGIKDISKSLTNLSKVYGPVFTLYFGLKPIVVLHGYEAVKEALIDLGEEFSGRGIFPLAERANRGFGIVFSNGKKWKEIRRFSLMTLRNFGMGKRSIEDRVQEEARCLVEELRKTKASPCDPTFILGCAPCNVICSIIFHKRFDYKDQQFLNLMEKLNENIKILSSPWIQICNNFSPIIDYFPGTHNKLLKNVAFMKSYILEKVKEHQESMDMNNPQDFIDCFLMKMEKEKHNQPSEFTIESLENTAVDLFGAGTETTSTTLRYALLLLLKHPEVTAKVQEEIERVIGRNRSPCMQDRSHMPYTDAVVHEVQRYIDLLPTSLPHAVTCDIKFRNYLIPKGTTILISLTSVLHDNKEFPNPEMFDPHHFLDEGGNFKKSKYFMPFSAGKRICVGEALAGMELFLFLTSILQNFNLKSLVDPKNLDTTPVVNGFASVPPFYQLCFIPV

In the case of `CCN(CC)c1ccc(N/C=C2/C(=O)NC(=O)N(c3ccc(OC)cc3)C2=O)cc1`, the EC50 [1] was 6.36 µM (active) and the EC50 [2] was 9.58 µM (inconclusive).
With `NS(=O)(=O)c1ccc(CCNC(=O)C2CCN(c3ncnc4c3nc3n4CCCCC3)CC2)cc1` the IC50 [3] was > 20 µM (inactive).
For `O=C1NC(=O)N(CCc2ccccc2)C(=O)/C1=C/NCCCn1ccnc1`, the EC50 [1] was > 300 µM (not active) and the EC50 [2] was > 300 µM (not active).
With `CCOC(=O)c1nn(-c2cccc(OC)c2)c2nc(Nc3ccccc3)cc(=O)n12` the EC50 [4] was 30 µM (active), the EC50 [5] was 3.12 µM (active) and the IC50 [6] was > 79 µM (inactive). The EC50 [7] was > 150 µM (not active).
In the case of `Oc1ccc(C[C@H]2CNCCN2CCCCC2CCCCC2)cc1`, the IC50 [3] was > 20 µM (inactive) and the CC50 [8] was 13.2 µM (active).
With `Cc1nnc(NC(=O)Cc2cccs2)s1` the IC50 [9] was 19 µM (active).
In the case of `CC1CCC2(CC1)NC(=O)N(CC(=O)c1ccc[nH]1)C2=O` (stereo unspecified), the IC50 [9] was > 50 µM (not active).
In the case of `N#Cc1c(SCC(=O)Nc2nccs2)nc2c(c1-c1ccco1)CCCC2`, the IC50 [9] was > 50 µM (not active) and the EC50 [10] was > 195 µM (not active).
With `COc1ccc(Cn2c(N)c(C(=O)NCc3ccco3)c3nc4ccccc4nc32)cc1` the AC50 [11] was 14.1 µM (inconclusive), the IC50 [9] was 17.3 µM (active) and the AC50 [12] was 1 µM (inconclusive).
With `C=CCOc1cccc(C2C(C(=O)c3ccco3)=C(O)C(=O)N2Cc2ccco2)c1` (stereo unspecified) the EC50 [1] was > 300 µM (not active) and the EC50 [2] was > 300 µM (not active).
With `O=C(CSc1nnc(-c2ccco2)[nH]1)Nc1sc2c(c1C(=O)Nc1ccccc1)CCCC2` the IC50 [9] was 40 µM (not active).
For `O=C(CC1CC2CCC1C2)Nc1nc(-c2ccccn2)cs1` (stereo unspecified), the EC50 [4] was 13.2 µM (active), the EC50 [5] was 4.21 µM (active) and the EC50 [13] was > 150 µM (inactive). The EC50 [14] was > 38 µM (not active), the IC50 [6] was > 79 µM (inactive) and the EC50 [7] was > 150 µM (not active).
In the case of `O=C(CCCCCn1c(=O)[nH]c2ccccc2c1=O)NCCCN1CCN(c2ccccc2F)CC1`, the IC50 [3] was > 20 µM (inactive).
In the case of `CC1(C)Cc2c(sc(NC(=O)c3ccc4c(c3)OCCO4)c2C(N)=O)C(C)(C)N1`, the IC50 [3] was > 20 µM (inactive).
In the case of `COc1ccc(/C(O)=C/C2=NCC3c4ccccc4CCN3C2=O)cc1` (stereo unspecified), the EC50 [1] was > 300 µM (not active) and the EC50 [2] was > 300 µM (not active).
